Experimental data from patent US20200163984A1, “USE OF ISOVALERYL SPIRAMYCIN I, II AND/OR III IN MANUFACTURING MEDICAMENT FOR TREATING AND/OR PREVENTING TUMOR, AND MEDICAMENT” (SHENYANG FUYANG PHARMACEUTICAL TECHNOLOGY CO., LTD., priority 2017, published 2020).
Values after ≈ are worked out from the molar mass of the structure shown.

Experiments:
[1] = system: transplanted tumor of human non-small cell lung cancer cell A549; assay: A549 transplanted tumor in nude mice; details: for Tumor Volume (mm3) (d 1): d1
Protocol: (§1) A549 cells in a logarithmic growth phase were taken and subjected to a trypan blue exclusion experiment showing that the cell viability was more than 95%, then the cells were subjected to trypsinization, centrifugation, and supernatant removal. Then cell concentration was adjusted to 1×10^7/ml with matrigel, then each nude mouse was inoculated subcutaneously with 0.2 ml of cells at its right armpit and recorded as the first day of inoculation. When the tumor grows to be greater than or equal to 100 mm^3, the mice were randomly divided into 11 groups with 6 mice in each group: a model group, a cyclophosphamide group, isovaleryl spiramycin I groups with doses of 25, 50 and 100 mg/kg, isovaleryl spiramycin II groups with doses of 25, 50 and 100 mg/kg, and isovaleryl spiramycin III groups with doses of 25, 50 and 100 mg/kg. Each group was continuously administered intragastrically for 30 days with a dose of 20 ml/kg. The mice were sacrificed the next day after drug withdrawal and the indicators were tested. The long diameter and short diameter of the tumor, and the body weight of each mouse were recorded every 3 days from drug administration to nude mouse sacrifice.
(§2) The body weight of the nude mice and the long diameter (a) and short diameter (b) of the transplanted tumor were measured every 3 days, and the tumor volume (v), relative tumor volume (RTV) and relative tumor proliferation rate (T/C) are calculated respectively according to the following formulas, wherein V=a×b^2/2; RTV=V/V0 (V0 is the tumor volume before administration, V is the tumor volume before sacrifice), and T/C (%)=treatment group RTV/model control group RTV×100%.
(§3) Each mouse was weighed and sacrificed. After the tumor was completely stripped off from the body of the mouse, the non-tumor tissues such as blood stains and fat were removed to weigh the tumor and calculate the tumor growth inhibition rate. The average tumor weight of each group of mice is used as an indicator of efficacy. Tumor growth inhibition rate (%)=(1−the average tumor weight of the treatment group/the average tumor weight of the model group)×100%.

[2] = Thymus index and spleen index of H22 liver cancer tumor-bearing mice
Protocol: In the H22 liver cancer model, the mice inoculated with the tumor were randomly divided into groups with 10 mice in each group on the next day of inoculation. The groups included: a model control group, a positive drug cyclophosphamide control group (CTX, 26 mg/kg), isovaleryl spiramycin I groups with doses of 13, 26 and 52 mg/kg; isovaleryl spiramycin II groups with doses of 13, 26 and 52 mg/kg; isovaleryl spiramycin III groups with doses of 13, 26 and 52 mg/kg. Each group was continuously administered intragastrically for 7 days with a dose of 20 ml/kg.

[3] = system: human bladder cancer cell T-24; details: T-24, MTT
Text: (§4) The purpose of the assay is to evaluate the in vitro cell proliferation inhibition or cytotoxic activity of a tested sample.
(§5) Human breast cancer cells MCF-7 and MDA-MB-231, human hepatoma cells HepG2, human non-small cell lung cancer cells A549, human large cell lung cancer cells H460 and H1299, human renal clear cell adenocarcinoma cell 786-0, human renal cell adenocarcinoma cell 769-P, human glioma cell U251, human glioblastoma cell A172, human tissue lymphoma cell U937, human cervical cancer cell HeLa, human prostate cancer cell PC3, human pancreatic cancer cell PANC-1, human esophageal cancer cell TE-1, human gastric adenocarcinoma cell SGC7901, human colon cancer cell HT-29, human promyelocytic leukemia cell HL-60, human thyroid cancer cell TPC-1, and human bladder cancer cell T-24.
(§6) The inhibition rate of the medicament on tumor cell growth is calculated according to the following formula:
(§7) Tumor cell growth inhibition rate (%)=[A492 (negative control)−A492 (dosing group)]/A492 (negative control)×100%
(§8) And the half-inhibitory concentration (IC50) of the sample is determined therefrom.

[4] = system: human thyroid cancer cell TPC-1; details: TPC-1, MTT
Text: as §4, §5, §6, §7, §8

[5] = system: transplanted tumor of human hepatoma cell HepG-2; assay: HepG-2 transplanted tumor in nude mice; details: for Tumor Volume (mm3) (d 1): d1
Protocol: as §1, with “Then” for “A549 cells in a logarithmic growth phase were taken and subjected to a trypan blue exclusion experiment showing that the cell viability was more than 95%, then the cells were subjected to trypsinization, centrifugation, and supernatant removal. Then”
as §2, §3

[6] = A549, high dose (100 mg/kg in method) i.g. 30 days
[7] = A549, low dose (25 mg/kg in method) i.g. 30 days
[8] = A549, medium dose (50 mg/kg in method) i.g. 30 days
[9] = HepG-2, high dose (100 mg/kg in method) i.g. 30 days
[10] = HepG-2, low dose (25 mg/kg in method) i.g. 30 days
[11] = HepG-2, medium dose (50 mg/kg in method) i.g. 30 days

SMILES: CCC(=O)O[C@@H]1CC(=O)O[C@H](C)C/C=C/C=C/[C@H](O[C@H]2CC[C@H](N(C)C)[C@@H](C)O2)[C@H](C)C[C@H](CC=O)[C@H](O[C@@H]2O[C@H](C)[C@@H](O[C@H]3C[C@@](C)(O)[C@@H](OC(=O)CC(C)C)[C@H](C)O3)[C@H](N(C)C)[C@H]2O)[C@H]1OC [Isovaleryl spiramycin III, isovaleryl spiramycin III]
- Relative Tumor Proliferation Rate (T/C) [1, 6]: 33.04%
- tumor growth inhibition rate [1, 6]: 66.53%
- Relative Tumor Proliferation Rate (T/C) [1, 7]: 65.93%
- tumor growth inhibition rate [1, 7]: 37.99%
- tumor volume and relative tumor volume compared with the model group ([1]; A549, low, medium and high doses, P<0.05): significantly lower
- Relative Tumor Proliferation Rate (T/C) [1, 8]: 47.25%
- tumor growth inhibition rate [1, 8]: 55.95%
- Inhibition Rate (%) ([1]; A549 nude mice, 25 mg/kg): 37.99%
- Relative Tumor Proliferation Rate (T/C) ([1]; A549 nude mice, 25 mg/kg): 65.93%
- Relative Tumor Volume (RTV) ([1]; A549 nude mice, 25 mg/kg): 10.70 ± 2.64
- Tumor Weight ([1]; A549 nude mice, 25 mg/kg): 1.49 ± 0.42 g
- Tumor Volume (mm3) (d 1) ([1]; A549 nude mice, 25 mg/kg): 113.96 ± 6.85 mm3
- Tumor Volume (mm3) (d30) ([1]; A549 nude mice, 25 mg/kg): 1216.86 ± 295.20 mm3
- Inhibition Rate (%) ([1]; A549 nude mice, 50 mg/kg): 55.95%
- Relative Tumor Proliferation Rate (T/C) ([1]; A549 nude mice, 50 mg/kg): 47.25%
- Relative Tumor Volume (RTV) ([1]; A549 nude mice, 50 mg/kg): 7.67 ± 2.86
- Tumor Weight ([1]; A549 nude mice, 50 mg/kg): 1.06 ± 0.49 g
- Tumor Volume (mm3) (d 1) ([1]; A549 nude mice, 50 mg/kg): 113.65 ± 11.57 mm3
- Tumor Volume (mm3) (d30) ([1]; A549 nude mice, 50 mg/kg): 856.65 ± 281.96 mm3
- Inhibition Rate (%) ([1]; A549 nude mice, 100 mg/kg): 66.53%
- Relative Tumor Proliferation Rate (T/C) ([1]; A549 nude mice, 100 mg/kg): 33.04%
- Relative Tumor Volume (RTV) ([1]; A549 nude mice, 100 mg/kg): 5.36 ± 3.01
- Tumor Weight ([1]; A549 nude mice, 100 mg/kg): 0.80 ± 0.43 g
- Tumor Volume (mm3) (d 1) ([1]; A549 nude mice, 100 mg/kg): 118.69 ± 8.13 mm3
- Tumor Volume (mm3) (d30) ([1]; A549 nude mice, 100 mg/kg): 632.73 ± 350.89 mm3
- mouse weight compared with the model group ([1]; mouse, in vivo): no significant changes
- Body Weight (g) (d1) ([1]; mouse, in vivo, 25 mg/kg): 21.68 ± 1.25 g
- Body Weight (g) (d30) ([1]; mouse, in vivo, 25 mg/kg): 23.97 ± 1.01 g
- Body Weight (g) (d1) ([1]; mouse, in vivo, 50 mg/kg): 21.99 ± 1.40 g
- Body Weight (g) (d30) ([1]; mouse, in vivo, 50 mg/kg): 24.36 ± 1.73 g
- Body Weight (g) (d1) ([1]; mouse, in vivo, 100 mg/kg): 20.57 ± 2.28 g
- Body Weight (g) (d30) ([1]; mouse, in vivo, 100 mg/kg): 23.53 ± 1.63 g
- Spleen Index (%) ([2]; dose 13 mg/kg): 0.68 ± 0.15%
- Thymus Index (%) ([2]; dose 13 mg/kg): 0.15 ± 0.06%
- Spleen Index (%) ([2]; dose 26 mg/kg): 0.66 ± 0.21%
- Thymus Index (%) ([2]; dose 26 mg/kg): 0.15 ± 0.05%
- Spleen Index (%) ([2]; dose 52 mg/kg): 0.65 ± 0.26%
- Thymus Index (%) ([2]; dose 52 mg/kg): 0.13 ± 0.02%
- IC50 [3]: 31.23 ± 1.47 µg/mL (≈ 31.8 µM)
- IC50 [4]: 29.72 ± 4.02 µg/mL (≈ 30.2 µM)
- Relative Tumor Proliferation Rate (T/C) [5, 9]: 32.71%
- tumor growth inhibition rate [5, 9]: 63.28%
- Relative Tumor Proliferation Rate (T/C) [5, 10]: 64.69%
- tumor growth inhibition rate [5, 10]: 38.92%
- tumor volume and relative tumor volume compared with the model group ([5]; HepG-2, low, medium and high doses, P<0.05): significantly lower
- Relative Tumor Proliferation Rate (T/C) [5, 11]: 43.18%
- tumor growth inhibition rate [5, 11]: 60.54%
- Inhibition Rate (%) ([5]; HepG-2 nude mice, 25 mg/kg): 38.92%
- Relative Tumor Proliferation Rate (T/C) ([5]; HepG-2 nude mice, 25 mg/kg): 64.69%
- Relative Tumor Volume (RTV) ([5]; HepG-2 nude mice, 25 mg/kg): 10.83 ± 2.47
- Tumor Weight ([5]; HepG-2 nude mice, 25 mg/kg): 1.48 ± 0.42 g
- Tumor Volume (mm3) (d 1) ([5]; HepG-2 nude mice, 25 mg/kg): 116.67 ± 8.32 mm3
- Tumor Volume (mm3) (d30) ([5]; HepG-2 nude mice, 25 mg/kg): 1261.48 ± 283.95 mm3
- Inhibition Rate (%) ([5]; HepG-2 nude mice, 50 mg/kg): 60.54%
- Relative Tumor Proliferation Rate (T/C) ([5]; HepG-2 nude mice, 50 mg/kg): 43.18%
- Relative Tumor Volume (RTV) ([5]; HepG-2 nude mice, 50 mg/kg): 7.23 ± 2.57
- Tumor Weight ([5]; HepG-2 nude mice, 50 mg/kg): 0.96 ± 0.44 g
- Tumor Volume (mm3) (d 1) ([5]; HepG-2 nude mice, 50 mg/kg): 119.43 ± 10.86 mm3
- Tumor Volume (mm3) (d30) ([5]; HepG-2 nude mice, 50 mg/kg): 852.87 ± 293.29 mm3
- Inhibition Rate (%) ([5]; HepG-2 nude mice, 100 mg/kg): 63.28%
- Relative Tumor Proliferation Rate (T/C) ([5]; HepG-2 nude mice, 100 mg/kg): 32.71%
- Relative Tumor Volume (RTV) ([5]; HepG-2 nude mice, 100 mg/kg): 5.48 ± 3.19
- Tumor Weight ([5]; HepG-2 nude mice, 100 mg/kg): 0.89 ± 0.46 g
- Tumor Volume (mm3) (d 1) ([5]; HepG-2 nude mice, 100 mg/kg): 118.26 ± 6.57 mm3
- Tumor Volume (mm3) (d30) ([5]; HepG-2 nude mice, 100 mg/kg): 641.99 ± 364.25 mm3
- mouse weight compared with the model group ([5]; mouse, in vivo): no significant changes
- Body Weight (g) (d1) ([5]; mouse, in vivo, 25 mg/kg): 21.07 ± 1.24 g
- Body Weight (g) (d30) ([5]; mouse, in vivo, 25 mg/kg): 23.94 ± 1.67 g
- Body Weight (g) (d1) ([5]; mouse, in vivo, 50 mg/kg): 21.25 ± 1.86 g
- Body Weight (g) (d30) ([5]; mouse, in vivo, 50 mg/kg): 24.36 ± 1.53 g
- Body Weight (g) (d1) ([5]; mouse, in vivo, 100 mg/kg): 20.47 ± 2.24 g
- Body Weight (g) (d30) ([5]; mouse, in vivo, 100 mg/kg): 23.64 ± 1.44 g
